According to article PMC11942360, “Intratracheal Delivery of a Phospholamban Decoy Peptide Attenuates Cardiac Damage Following Myocardial Infarction” (International Journal of Molecular Sciences, 2025):
One block for each substance: values may come before it.

What was measured:
[1] = system: C57/Bl6 mice, myocardial infarction; experiment: Myocardial infarction (LAD ligation) model: histology and heart morphology; type: in vivo; details: 200 nmoles IT 3 h prior to MI, vs PBS-injected
Protocol: (§1) Figure 2 Delivery of dNP2-SE via IT injection exerts cardio-protective effects upon MI. (A) Experimental scheme. A total of 200 nmol dNP2-SE or PBS was delivered via IT injection to adult (9-week-old) C57/Bl6 mice. MI was induced by LAD ligation 3 h post-injection. Hearts were harvested and analyzed 24 h post-MI. (B) Hearts were sectioned and stained with hematoxylin and eosin (H&E) or Picro Sirius Red. Representative images are shown. The LV chamber area was traced (shown in blue lines) and quantitated. The thickness of the LV free wall was also measured (shown in straight black lines). (C,D) LV chamber area and LV free wall thickness are presented as a graph. n = 6~7 per group; one-way ANOVA; *** p < 0.001. Bar represents the mean ±SEM. […] Bar represents the mean ±SEM. (F) TUNEL staining of the heart sections was performed using the DeadEnd Fluorometric TUNEL System. Apoptotic DNA fragmentation was labeled with fluorescein-12-dUTP (green). Nuclei were stained with Hoechst 33342 (blue). Representative images are shown. […] Bar represents the mean ± SEM.
(§2) The left side of the chest was shaved, and an intubation tube was inserted into the trachea. An incision was made in the 4th intercostal space, and the muscles were separated with scissors. The pericardium was gently removed. MI was induced by ligation of the left anterior descending (LAD) artery using a 7–0 black silk suture. The lower region of the artery turned pale immediately after ligation. The chest was sutured with 4–0 black silk. The same surgical procedure, without LAD ligation, was performed for the sham operation.
Harvested heart tissues were fixed in 4% PFA for 24 h at 4 °C and then washed with tap water. After discarding the tap water, the tissues were sequentially incubated in 70%, 80%, 95%, and 100% ethanol for 1 h each to dehydrate. Following the ethanol incubations, the tissues were incubated in xylene for 1 h and 20 min and then embedded in paraffin at 60 °C for 4 h. Paraffin-embedded tissues were sliced into 8 µm sections. After rehydration, the sections were used for histology as follows:
H&E staining: The sections were incubated in hematoxylin (26041-06, Electron Microscopy Science, Hatfield, PA, USA) for 30 s to stain the nuclei, followed by a 10 min wash in running tap water to remove excess stain. Subsequently, the sections were incubated in eosin (EOYA-05-OT-1L, Biognost, Zagreb, Croatia) for 2 min to stain the cytoplasm.
Picro Sirius staining: The sections were incubated for 60 min in Picro Sirius Red solution (ab150681, Abcam, Waltham, MA, USA), rinsed twice with 0.5% acetic acid, and then rinsed with absolute alcohol. H&E and Picro Sirius-stained slides were observed using a slide scanner (Aperio CS2, Leica, Germany).

[2] = biological target: T1, PP1cα (Mus musculus, UniProt P62137); experiment: Streptavidin precipitation of biotin-dNP2-SE from heart lysates, blot for PP1cα; type: binding, mice; details: biotin-dNP2-SE delivered to the normal heart via IT injection
T1 construct: from tissue; host or cells: normal mouse heart after IT injection of biotin-dNP2-SE
Source text: (§3) Figure 5 Inhibitory mechanism of dNP2-SE on the PP1cα-PPP1R3A-PLN complex. (A) Protein lysates shown in Figure 4 were subjected to immunoprecipitation with anti-PP1cα antibodies and blotted with antibodies against PLN, PPP1R3A, and PP1cα (upper three rows). Inputs were also blotted with antibodies against PLN, PPP1R3A, and PP1cα (lower three rows). (B) Biotin-dNP2-SE was delivered to the normal heart via IT injection. Heart lysates were obtained, precipitated with streptavidin, and blotted with PP1cα, PPP1R3A, and PLN. Inputs were also blotted.

[3] = system: C57/Bl6 mice, myocardial infarction; experiment: Myocardial infarction model: TUNEL staining of heart sections; type: in vivo; details: 200 nmoles IT 3 h prior to MI; 24 h post-MI; LV free wall; n = 3~4 per group
Protocol: as §1, with “± SEM. […]” for “± SEM.”
The TUNEL assay was performed following the manufacturer’s instructions (DeadEnd Fluorometric TUNEL System, Promega, […], USA). […] Apoptotic signals and nuclear signals in the LV region were counted using cellSens TruAI 4.3 software (OLYMPUS, Tokyo, Japan), and the percentage of TUNEL-positive cells was calculated.

[4] = biological target: T2, PPP1R3A (Mus musculus, UniProt Q99MR9); experiment: Streptavidin precipitation of biotin-dNP2-SE from heart lysates, blot for PPP1R3A; type: binding, mice; details: biotin-dNP2-SE delivered to the normal heart via IT injection
T2 construct: from tissue; host or cells: normal mouse heart after IT injection of biotin-dNP2-SE
T2 sequence (Q99MR9 1-1089): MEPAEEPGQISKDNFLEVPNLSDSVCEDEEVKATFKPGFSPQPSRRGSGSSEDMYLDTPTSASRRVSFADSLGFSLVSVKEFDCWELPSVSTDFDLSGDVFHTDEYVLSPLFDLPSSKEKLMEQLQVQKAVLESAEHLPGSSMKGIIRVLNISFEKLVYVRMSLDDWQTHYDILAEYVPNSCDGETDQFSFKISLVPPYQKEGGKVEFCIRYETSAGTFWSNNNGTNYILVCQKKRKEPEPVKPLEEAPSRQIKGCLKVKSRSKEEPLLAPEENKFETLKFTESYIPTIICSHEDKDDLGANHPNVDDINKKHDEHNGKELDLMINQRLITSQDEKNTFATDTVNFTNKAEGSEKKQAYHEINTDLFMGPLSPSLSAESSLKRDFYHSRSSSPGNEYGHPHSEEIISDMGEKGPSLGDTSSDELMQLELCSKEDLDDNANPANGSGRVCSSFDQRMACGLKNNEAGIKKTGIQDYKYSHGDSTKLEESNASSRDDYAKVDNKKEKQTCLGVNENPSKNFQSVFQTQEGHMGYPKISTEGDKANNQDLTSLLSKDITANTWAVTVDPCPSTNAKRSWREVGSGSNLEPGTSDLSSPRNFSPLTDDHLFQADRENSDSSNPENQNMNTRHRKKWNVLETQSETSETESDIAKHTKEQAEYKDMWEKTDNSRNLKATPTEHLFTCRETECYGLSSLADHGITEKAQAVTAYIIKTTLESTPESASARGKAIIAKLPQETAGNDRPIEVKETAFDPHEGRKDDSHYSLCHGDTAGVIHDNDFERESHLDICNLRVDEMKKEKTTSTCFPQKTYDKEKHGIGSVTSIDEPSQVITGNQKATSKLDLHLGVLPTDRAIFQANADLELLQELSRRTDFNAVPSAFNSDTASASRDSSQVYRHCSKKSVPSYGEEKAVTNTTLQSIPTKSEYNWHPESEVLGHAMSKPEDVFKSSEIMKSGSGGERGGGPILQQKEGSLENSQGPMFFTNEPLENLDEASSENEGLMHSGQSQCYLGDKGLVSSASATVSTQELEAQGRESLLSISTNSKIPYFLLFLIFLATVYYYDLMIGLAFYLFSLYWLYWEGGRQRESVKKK
Source text: as §3

[5] = system: SERCA2a, α-SMA, phospho-PLN (S16), PP1cα, PPP1R3A in heart; experiment: Myocardial infarction model: western blotting of heart lysates; type: in vivo, mice; details: 200 nmoles IT 3 h prior to MI, 24 h post-MI, western blot, n = 3 per group
Source text: Figure 4 Delivery of dNP2-SE via IT injection prevents molecular abnormalities upon MI. (A) Protein lysates obtained from the hearts shown in Figure 2 and Figure 3 were subjected to western blotting. Antibodies against SERCA2a, α-SMA, phospho-PLN, PLN, PP1cα, and PPP1R3A were used. β-actin was used as a loading control. (B) The ratio of phosphorylated PLN over PLN is shown. […] Bar represents the mean ± SEM.

[6] = system: C57/Bl6 mice, myocardial infarction; experiment: Myocardial infarction model: hemodynamic analysis (PV loops); type: in vivo; details: 200 nmoles IT 3 h prior to MI, 24 h post-MI, n = 5~8 per group
Protocol: Figure 3 Delivery of dNP2-SE via IT injection preserves cardiac contractility upon MI. Hemodynamic analyses were performed 24 h post-MI to measure cardiac contractility. (A) Representative PV loops are shown. (B) End-systolic pressure–volume relationship (ESPVR), dp/dt max (mmHg), and dp/dt min (mmHg) are shown. […] Bar represents the mean ± SEM.
as §2
An incision was made in the abdominal wall to expose the abdominal cavity. The diaphragm was carefully separated from the ribs to avoid bleeding during the incision procedures. The xiphoid process was lifted, and the diaphragm was pulled down and fixed to secure the site. The pericardium was then removed. A small puncture was made in the left ventricle using an insulin syringe, and a probe was inserted through the puncture (AD instruments, Dunedin, New Zealand). Data analysis was performed using LabChart 8 (AD instruments, New Zealand).

[7] = biological target: T3, PP1cα-PPP1R3A-PLN complex (Mus musculus, UniProt P62137); experiment: Immunoprecipitation of heart lysates with anti-PP1cα antibodies; details: heart lysates of MI mice given 200 nmoles IT, IP with anti-PP1cα
T3 construct: from tissue; host or cells: mouse heart (C57BL/6, after MI, PBS- or dNP2-SE-injected)
Source text: as §3
Immunoprecipitation was performed by adding 1 µg of the corresponding antibody to 1 mg of lysate. The mixture was gently inverted on a rotator overnight at 4 °C. After the primary antibody incubation, 30 µL of protein A-conjugated magnetic beads (88845, Thermo Fisher, Waltham, MA, USA) were added and incubated for 1 h to bind with the antibody. To isolate the protein–antibody–bead complex from the lysate, the mixture was centrifuged at 3000 rpm for 3 min at 4 °C and washed 4 times with lysis buffer. As a control for the precipitates, 2% of the initial protein amount used for pulldown was prepared as input. The collected complexes and inputs were used for western blots.

[8] = cited from earlier work
Source text: In this study, we aimed to evaluate the feasibility of delivering a naked peptide fused with a cell-penetrating peptide (CPP) to the heart via the lung-to-heart route without encapsulation in NPs. CPPs, which are the peptide sequences enriched in arginine and lysine residues, facilitate the translocation of hydrophilic macromolecules such as proteins and peptides across cellular membranes. The specific CPP used in this study is a tandem repeat of NP2 (dNP2), a sequence derived from the human novel LZAP-binding protein (NLBP). Compared to TAT, the most widely used CPP originated fro ...

[9] = 24 h post-MI, n = 6~7 per group

T3 sequence (P62137 whole entry, one chain of several): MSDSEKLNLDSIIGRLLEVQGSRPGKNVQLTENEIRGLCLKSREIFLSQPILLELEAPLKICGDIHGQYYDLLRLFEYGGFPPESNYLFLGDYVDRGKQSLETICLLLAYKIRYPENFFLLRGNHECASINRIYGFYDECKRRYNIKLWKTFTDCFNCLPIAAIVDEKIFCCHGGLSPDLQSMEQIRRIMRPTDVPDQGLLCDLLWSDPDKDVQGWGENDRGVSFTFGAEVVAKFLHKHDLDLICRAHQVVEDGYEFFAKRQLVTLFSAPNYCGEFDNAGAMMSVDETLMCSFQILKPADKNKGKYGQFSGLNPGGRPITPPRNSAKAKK
T1 sequence (P62137 whole entry): as the sequence (P62137 whole entry, one chain of several) above

Binding to PP1cα (streptavidin precipitation, western blot) [2]: strongly binds | Interaction with PPP1R3A (streptavidin precipitation, western blot) [4]: only weakly interacts | Interactions between PP1cα and PPP1R3A (co-immunoprecipitation) [7]: not altered | Physical interactions between PP1cα and PLN (co-immunoprecipitation) ([7]; vs PBS-injected): completely abolished
Substance: Ac-KIKKVKKKGRKGSKIKKVKKKGRKGRAETIEMPQ-NH2 [dNP2-SE]
Heart weight-to-body weight ratio under MI [1, 9]: normalized | LV chamber area under MI [1, 9]: remained normal | LV free wall thickness under MI [1, 9]: significantly preserved | Collagen deposition (Picro Sirius staining) under MI ([1]; hearts 24 h post-MI): markedly reduced | Increase in apoptotic cell populations (TUNEL-positive cells) under MI [3]: effectively prevented | Phosphorylation of PLN at S16 (p-PLN) in heart under MI ([5]; p-PLN/PLN): fully preserved | Expression level of PP1cα in heart [5]: remained unchanged | MI-induced increase in PPP1R3A expression in heart [5]: prevented | MI-induced increase of α-smooth muscle actin (α-SMA) in heart [5]: attenuated | MI-induced reduction of SERCA2a expression in heart [5]: attenuated | PV loop pattern under MI [6]: indistinguishable from that of sham-operated hearts | Ejection fraction (EF) under MI ([6]; vs PBS-injected): significantly ameliorated | End-systolic pressure–volume ratio (ESPVR) under MI ([6]; vs PBS-injected): significantly normalized | LV end-diastolic volume (Vmax) under MI ([6]; vs PBS-injected): significantly ameliorated | LV end-systolic volume (Vmin) under MI ([6]; vs PBS-injected): significantly ameliorated | dP/dt max under MI ([6]; vs PBS-injected): significantly normalized | dP/dt min under MI ([6]; vs PBS-injected): significantly normalized

Substance: KIKKVKKKGRKGSKIKKVKKKGRKG [dNP2]
Toxicity compared to TAT [8]: significantly lower toxicity than TAT
